Measurements: patent US11278533B2, “Animal pest control method” (E.I. DU PONT DE NEMOURS AND COMPANY, priority 2007, dated 2022)

Test system: cat flea (Ctenocephalides felis)
Assay: Test D: cat flea membrane feeding on treated bovine blood
Assay type: in vivo
Details: 72 h
Method: For evaluating control of the cat flea (Ctenocephalides felis), a test compound was solubilized in propylene glycol/glycerol formal (60:40) and then diluted in bovine blood to a final test rate of 30 ppm. The treated blood was placed in a tube, and the bottom of the tube was covered with a membrane. Approximately 10 adult cat fleas were allowed to feed through the membrane on the treated blood. The adult fleas were then evaluated for mortality 72 hours later.

SMILES	mortality at 30 ppm [%]
Cc1cc(C2=NOC(c3cc(Cl)cc(Cl)c3)(C(F)(F)F)C2)ccc1C(=O)NCc1ccccn1 (centres unmarked) [Compound 1, 4-[5-(3,5-dichlorophenyl)-4,5-dihydro-5-(trifluoromethyl)-3-isoxazolyl]-2-methyl-N-(2-pyridinylmethyl)benzamide]	≥ 50
CSCCNC(=O)c1ccc(C2=NOC(c3cc(Cl)cc(Cl)c3)(C(F)(F)F)C2)cc1C (centres unmarked) [Compound 2, 4-[5-(3,5-dichlorophenyl)-4,5-dihydro-5-(trifluoromethyl)-3-isoxazolyl]-2-methyl-N-[2-(methylthio)ethyl]benzamide]	≥ 50
Cc1cc(C2=NOC(c3cc(Cl)cc(Cl)c3)(C(F)(F)F)C2)ccc1C(=O)NCC(=O)NCC(F)(F)F (centres unmarked) [Compound 3, 4-[5-(3,5-dichlorophenyl)-4,5-dihydro-5-(trifluoromethyl)-3-isoxazolyl]-2-methyl-N-[2-oxo-2-[(2,2,2-trifluoroethyl)amino]ethyl]benzamide]	≥ 50
Cc1cc(C2=NOC(c3cc(Cl)cc(Cl)c3)(C(F)(F)F)C2)ccc1C(=O)NCC[S+](C)[O-] (centres unmarked) [Compound 5, 4-[5-(3,5-dichlorophenyl)-4,5-dihydro-5-(trifluoromethyl)-3-isoxazolyl]-2-methyl-N-[2-(methylsulfinyl)ethyl]benzamide]	≥ 50
Cc1cc(C2=NOC(c3cc(Cl)cc(Cl)c3)(C(F)(F)F)C2)ccc1C(=O)NCCS(C)(=O)=O (centres unmarked) [Compound 6, 4-[5-(3,5-dichlorophenyl)-4,5-dihydro-5-(trifluoromethyl)-3-isoxazolyl]-2-methyl-N-[2-(methylsulfonyl)ethyl]benzamide]	≥ 50
